According to ChEMBL document CHEMBL1132360, “N-Substituted (2,3-dihydro-1,4-benzodioxin-2-yl)methylamine derivatives as D(2) antagonists/5-HT(1A) partial agonists with potential as atypical antipsychotic agents” (J Med Chem, 1999):

Target: 5-hydroxytryptamine receptor 3A (Rattus norvegicus) (UniProt P35563)
Assay: The compound was tested for binding affinity against 5-hydroxytryptamine 3 receptor

Chain of 5-hydroxytryptamine receptor 3A (Rattus norvegicus) (P35563 whole entry, looked up): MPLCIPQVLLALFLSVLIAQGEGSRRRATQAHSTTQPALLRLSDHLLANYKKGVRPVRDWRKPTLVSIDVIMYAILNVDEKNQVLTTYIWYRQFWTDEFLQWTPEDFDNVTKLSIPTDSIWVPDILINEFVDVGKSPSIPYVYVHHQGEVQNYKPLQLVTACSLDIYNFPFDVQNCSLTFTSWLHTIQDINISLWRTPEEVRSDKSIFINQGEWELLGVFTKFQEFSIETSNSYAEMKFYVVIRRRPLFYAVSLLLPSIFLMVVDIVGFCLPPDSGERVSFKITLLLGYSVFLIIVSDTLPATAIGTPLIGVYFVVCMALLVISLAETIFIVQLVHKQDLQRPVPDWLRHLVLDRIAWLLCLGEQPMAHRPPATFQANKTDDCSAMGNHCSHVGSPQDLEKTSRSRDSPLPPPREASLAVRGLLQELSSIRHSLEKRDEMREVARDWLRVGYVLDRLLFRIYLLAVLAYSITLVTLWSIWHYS

Compound: COc1ccccc1N1CCC(CNCC2COc3ccc(Cl)cc3O2)CC1 (stereo unspecified)
- Ki: > 1000 nM
